Test results published in US20070287726A1, “5-Substituted 1H-Pyrrolo [3,2-B] Pyridines” (Altana Pharma AG, priority 2004, published 2007).

Columns and labels:
[1] = test system: pentagastrin-stimulated acid secretion of the perfused rat stomach; experiment: Secretion-inhibiting action on the perfused rat stomach; type: in vivo; details: anesthetized CD rat
Excerpt: In Table A which follows, the influence of the compounds of the formula 1 according to the invention on the pentagastrin-stimulated acid secretion of the perfused rat stomach after intraduodenal/intravenous administration in vivo is shown.
The abdomen of anesthetized rats (CD rat, female, 200-250 g; 1.5 g/kg i.m. urethane) was opened after tracheotomy by a median upper abdominal incision and a PVC catheter was fixed transorally in the esophagus and another via the pylorus such that the ends of the tubes just projected into the gastric lumen. The catheter leading from the pylorus led outward into the right abdominal wall through a side opening.
After thorough rinsing (about 50-100 ml), warm (37° C.) physiological NaCl solution was continuously passed through the stomach (0.5 ml/min, pH 6.8-6.9; Braun-Unita I). The pH (pH meter 632, glass electrode EA 147; φ=5 mm, Metrohm) and, by titration with a freshly prepared 0.01N NaOH solution to pH 7 (Dosimat 665 Metrohm), the secreted HCl were determined in the effluent in each case collected at an interval of 15 minutes.
The gastric secretion was stimulated by continuous infusion of 1 μg/kg (=1.65 ml/h) of i.v. pentagastrin (left femoral vein) about 30 min after the end of the operation (i.e. after determination of 2 preliminary fractions). The substances to be tested were administered intraduodenally (substance 7 intravenously) in a 2.5 ml/kg liquid volume 60 min after the start of the continuous pentagastrin infusion.
The body temperature of the animals was kept at a constant 37.8-38° C. by infrared irradiation and heat pads (automatic, stepless control by means of a rectal temperature sensor).

SMILES	melting point [°C]	Inhibition of acid secretion (%) ([1]; dose 1 μmol/kg i.d.)	also measured
CCc1cccc(C)c1CNc1cc(Cl)nc2cc(C)[nH]c12 [Example 1, (5-Chloro-2-methyl-1H-pyrrolo[3,2-b]pyridin-7-yl)-(2-ethyl-6-methyl-benzyl)-amine]	296		
CCOC(=O)c1cc(NCc2c(C)cccc2CC)c2[nH]c(C)cc2n1 [Example 2, Ethyl[7-(2-ethyl-6-methyl-benzylamino)-2-methyl-1H-pyrrolo[3,2-b]pyridine-5-carboxylate]]	274 to 275		
CCc1cccc(C)c1CNc1cc(C(=O)N(C)C)nc2c(Br)c(C)[nH]c12 [Example 5, 3-Bromo-7-(2-ethyl-6-methyl-benzylamino)-2-methyl-1H-pyrrolo[3,2-b]pyridine-5-carboxylic acid dimethylamide]		>30	
CCc1cccc(C)c1CNc1cc(C(=O)N(C)C)nc2c(CO)c(C)[nH]c12 [Example 6, 7-(2-Ethyl-6-methyl-benzylamino)-3-hydroxymethyl-2-methyl-1H-pyrrolo[3,2-b]pyridine-5-carboxylic acid dimethylamide]		>30	
CCc1cccc(C)c1CNc1cc(C(=O)N(C)C)nc2c(C)c(C)[nH]c12 [Example 7, 7-(2-Ethyl-6-methyl-benzylamino)-2,3-dimethyl-1H-pyrrolo[3,2-b]pyridine-5-carboxylic acid dimethylamide]			Inhibition of acid secretion (%) ([1]; dose 2 μmol/kg i.v.): >80%
CCOC(=O)c1cc(NCc2c(C)cccc2C)c2[nH]c(C)cc2n1 [Example 9, Ethyl[7-(2,6-dimethyl-benzylamino)-2-methyl-1H-pyrrolo[3,2-b]pyridine-5-carboxylate]]	254		
Cc1cccc(C)c1CNc1cc(C(=O)N(C)C)nc2c(Br)c(C)[nH]c12 [Example 12, 3-Bromo-7-(2,6-dimethyl-benzylamino)-2-methyl-1H-pyrrolo[3,2-b]pyridine-5-carboxylic acid dimethylamide]			Inhibition of acid secretion (%) ([1]; dose 3 μmol/kg i.d.): >60%
Cc1cccc(C)c1CNc1cc(C(=O)N(C)C)nc2c(C)c(C)[nH]c12 [Example 14, 7-(2,6-Dimethyl-benzylamino)-2,3-dimethyl-1H-pyrrolo[3,2-b]pyridine-5-carboxylic acid dimethylamide]		>50	
CCOC(=O)c1cc(NCc2c(C)cccc2C)c2[nH]c(C)c(CO)c2n1 [Example 19, Ethyl[7-(2,6-dimethyl-benzylamino)-3-hydroxymethyl-2-methyl-1H-pyrrolo[3,2-b]pyridine-5-carboxylate]]	256 to 259		
